# US11116757B2 (priority 2015, dated 2021)
# Read-outs that look alike come from different tables or passages of the source.
# Columns and labels:
# DCN1-UBC12 interaction = DCN1-UBC12 interaction (Homo sapiens (Human), UniProt Q96GG9); test: biochemical; type: binding; settings: for inhibition of the DCN1-UBC12NAc interaction: TR-FRET assay
# [1] = type: in vitro ADME; settings: Table 10
# Experimental: Test compound stock (10 mM in DMSO, 3 μL) was mixed with citrate phosphate buffered saline (597 μL) to make diluted test compound. Diluted test compound (150 μL) was transferred to a UV plate (pION Inc., Woburn, Mass.) and the UV spectrum (250 nm-500 nm) was read as the reference plate. Each well of the donor plate in a PAMPA sandwich plate (pION Inc., Woburn, Mass.) contained a filter that was painted on one side with 4 μL GIT lipid (pION Inc., Woburn, Mass.) to form a membrane. Each well in the acceptor plate in a PAMPA sandwich, preloaded with magnetic stir bars, was filled with acceptor solution buffer (200 pION Inc., Woburn, Mass.). The donor plate was filled with diluted test compound (180 The PAMPA sandwich was assembled by placing the donor plate over the acceptor plate. The combined PAMPA plate was placed on a pIon Gut-Box™, a stirring apparatus that allows equilibrium to be reached quicker. Aqueous Boundary Layer of the pIon Gut-Box™ was set to 40 μm and the compounds stirred for 30 minutes. The UV spectrum (250 nm-500 nm) of the donor and the acceptor were read. The permeability coefficient was calculated using PAMPA evolution 96 command software (pION Inc., Woburn, Mass.) based on the whole spectrum measured from the reference plate, the donor plate, and the acceptor plate. All compounds were tested in triplicates.
# physchem = settings: aqueous buffer, kinetic from dmso stock
# Experimental: Solubility assays were carried out on a Biomek FX lab automation workstation (Beckman Coulter, Inc., Fullerton, Calif.) using μSOL Evolution software (pION Inc., Woburn, Mass.). […] Compound stock (10 mM in DMSO, 10 μL) was added to 1-propanol (190 μL) to make a reference stock plate. […] Test compound stock (10 mM, 6 μL) was added to buffer (594 μL) in a 96-well storage plate and mixed. […] The suspension was then filtered through a 96-well filter plate (pION Inc., Woburn, Mass.). […] Calculation was carried out by μSOL Evolution software based on the AUC (area under curve) of UV spectrum of the sample plate and the reference plate. All compounds were tested in triplicate.
# [2] = target: Dcn1P-mediated co-E3 activity (Homo sapiens (Human), UniProt Q96GG9); test: Pulse-chase neddylation assay (NEDD8 transfer from UBC12 to CUL2CTD); type: biochemical; settings: for inhibition of labeled NEDD8 transfer from UBC12 to CUL2CTD-RBX2: pulse-chase neddylation assay
# Chain of Dcn1P-mediated co-E3 activity (Q96GG9 whole entry, looked up): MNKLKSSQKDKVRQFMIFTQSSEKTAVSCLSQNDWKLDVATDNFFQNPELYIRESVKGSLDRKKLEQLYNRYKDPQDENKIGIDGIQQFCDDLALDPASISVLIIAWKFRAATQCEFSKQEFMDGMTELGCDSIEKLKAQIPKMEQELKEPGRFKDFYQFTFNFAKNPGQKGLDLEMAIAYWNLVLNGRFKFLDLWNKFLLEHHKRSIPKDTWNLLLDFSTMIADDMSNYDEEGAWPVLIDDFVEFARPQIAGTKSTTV
# Chain of Dcn1P-mediated co-E3 activity (Q13617 whole entry partner, looked up): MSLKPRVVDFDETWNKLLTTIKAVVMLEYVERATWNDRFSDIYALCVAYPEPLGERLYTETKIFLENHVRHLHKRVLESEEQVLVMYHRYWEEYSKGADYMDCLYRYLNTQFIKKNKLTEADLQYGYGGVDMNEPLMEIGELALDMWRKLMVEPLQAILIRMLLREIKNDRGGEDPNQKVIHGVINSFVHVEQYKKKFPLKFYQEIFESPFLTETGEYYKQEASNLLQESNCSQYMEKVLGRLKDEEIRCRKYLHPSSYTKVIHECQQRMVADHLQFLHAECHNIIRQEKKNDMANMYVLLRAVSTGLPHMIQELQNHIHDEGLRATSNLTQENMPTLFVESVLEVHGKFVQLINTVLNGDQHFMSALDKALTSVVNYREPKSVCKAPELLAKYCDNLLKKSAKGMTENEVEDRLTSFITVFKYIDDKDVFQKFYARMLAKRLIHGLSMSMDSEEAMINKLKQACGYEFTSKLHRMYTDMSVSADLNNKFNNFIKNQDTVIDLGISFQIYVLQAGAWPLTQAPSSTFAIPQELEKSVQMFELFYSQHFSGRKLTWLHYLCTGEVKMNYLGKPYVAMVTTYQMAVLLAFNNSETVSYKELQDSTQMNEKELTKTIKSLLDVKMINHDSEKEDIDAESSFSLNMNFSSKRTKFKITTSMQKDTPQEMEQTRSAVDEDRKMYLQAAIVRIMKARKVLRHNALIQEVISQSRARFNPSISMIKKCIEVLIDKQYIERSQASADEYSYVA
# Chain of Dcn1P-mediated co-E3 activity (Q9UBF6 whole entry partner, looked up): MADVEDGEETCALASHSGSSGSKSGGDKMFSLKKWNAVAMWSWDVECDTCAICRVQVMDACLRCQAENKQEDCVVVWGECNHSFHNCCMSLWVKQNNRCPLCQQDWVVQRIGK
# Experimental: Compound inhibition of Dcn1^P-mediated co-E3 activity was monitored using pulse-chase assays to exclusively monitor effects of Nedd8 transfer to Cul2 without sensing earlier steps in the reaction. […] Load reactions were quenched by the addition of EDTA to 50 mM and incubated on ice for 5 minutes. Chase reactions involved dilution of the UBC12˜[^FAM]-Nedd8 thioester conjugate to 40 nM in 50 mM Tris, 50 mM NaCl, 50 mM EDTA, 0.5 mg/mL BSA, pH 6.8. […] Fluorescent gels were visualized by scanning on a Typhoon imager (GE).
# U-2 OS cells = test: Electron microscopy of compound treated cells; type: cell-based
# [3] = Table 10, R101 series, read-out: IC50 (μM) (TR-FRET)
# [4] = Table 6, commercial compounds, read-out: TR-FRET IC50
# [5] = Table 4, commercial compounds, read-out: TR-FRET IC50
# Chain of DCN1-UBC12 interaction (Q96GG9 60-248 limits assumed): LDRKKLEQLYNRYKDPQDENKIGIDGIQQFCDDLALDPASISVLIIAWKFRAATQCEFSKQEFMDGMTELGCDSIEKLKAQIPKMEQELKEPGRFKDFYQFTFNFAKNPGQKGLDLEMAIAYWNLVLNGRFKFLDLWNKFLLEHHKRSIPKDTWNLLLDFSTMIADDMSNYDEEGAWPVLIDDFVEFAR
smiles,measurement,setting,value
O=C(Nc1cccc(C(F)(F)F)c1)N(Cc1ccccc1)C1CCN(Cc2ccc(F)cc2)CC1 [compound 24],IC50,DCN1-UBC12 interaction; [3],9.2 µM
same,Pampa (×10^−6 cm/s),[1],>2200 ×10^−6 cm/s
same,solubility kinetic,physchem,0.9 ± 0.1 µM
O=C(Nc1cccc(C(F)(F)F)c1)N(Cc1ccccc1)C1CCN(Cc2ccc3c(c2)OCCO3)CC1 [compound 27],IC50,DCN1-UBC12 interaction; [3],7.3 µM
same,Pampa (×10^−6 cm/s),[1],>2200 ×10^−6 cm/s
same,solubility kinetic,physchem,1 ± 1.3 µM
"O=C(Nc1cccc(C(F)(F)F)c1)NC1CCN(Cc2ccccc2)CC1 [B7, 1-(1-Benzylpiperidin-4-yl)-3-(3-(Trifluoromethyl)Phenyl)Urea]",inhibition of the DCN1-UBC12NAc interaction,DCN1-UBC12 interaction,dose-dependent inhibition
same,inhibition of DCN1 dependent neddylation,[2]; dependence on presence of DCN1,specifically inhibits DCN1 dependent nedylation
same,inhibition of labeled NEDD8 transfer from UBC12 to CUL2CTD-RBX2,[2],dose-dependent inhibition
CCOc1cc(CN2CCC(N(Cc3ccccc3)C(=O)Nc3cccc(C(F)(F)F)c3)CC2)cc(Cl)c1O [compound 25],Pampa (×10^−6 cm/s),[1],110 ± 190 ×10^−6 cm/s
same,solubility kinetic,physchem,0.4 ± 0.1 µM
Cc1cccc(C(=O)NC2C(=O)Nc3c(c(C)nn3-c3ccccc3)C2c2ccc(F)cc2)c1 (stereo not shown) [F1],inhibition of labeled NEDD8 transfer from UBC12 to CUL2CTD-RBX2,[2],dose-dependent inhibition
O=C(Nc1cccc(C(F)(F)F)c1)N(Cc1ccccc1)C1CCN(Cc2cccnc2)CC1 [compound 23],IC50,DCN1-UBC12 interaction; [3],12 µM
same,Pampa (×10^−6 cm/s),[1],>2200 ×10^−6 cm/s
same,solubility kinetic,physchem,30 ± 1.1 µM
C=CC(=O)NCc1cccc(CN(C(=O)Nc2cccc(C(F)(F)F)c2)C2CCN(C(C)CCC)CC2)c1 (stereo not shown) [A3],IC50,DCN1-UBC12 interaction; read-out: TR-FRET IC50,0.018 µM
same,vacuolar structures by electron microscopy,U-2 OS cells,presence of large vacuolar structures
O=C(Nc1cccc(C(F)(F)F)c1)N(Cc1ccccc1)C1CCN(Cc2ccc3c(c2)OCO3)CC1 [compound 26],IC50,DCN1-UBC12 interaction; [3],7 µM
same,Pampa (×10^−6 cm/s),[1],>2200 ×10^−6 cm/s
same,solubility kinetic,physchem,< 0.1 µM
"CCCN1CCN(C(=O)c2cnn(-c3nccc(-c4cccs4)n3)c2C(C)C)CC1 [E1, (5-Isopropyl-1-(4-(Thiophen-2-yl)Pyrimidin-2-yl)-1H-Pyrazol-4-yl)(4-Propylpiperazin-1-yl)Methanone]",inhibition of the DCN1-UBC12NAc interaction,DCN1-UBC12 interaction,dose-dependent inhibition
same,IC50,DCN1-UBC12 interaction; [4],1.07 µM
same,inhibition of labeled NEDD8 transfer from UBC12 to CUL2CTD-RBX2,[2],dose-dependent inhibition
CN(C)c1ccc(CN2CCC(N(Cc3ccccc3)C(=O)Nc3cc(F)cc(C(F)(F)F)c3)CC2)cc1 [A209],IC50,DCN1-UBC12 interaction; read-out: TR-FRET IC50,> 21.5 µM
FC(F)(F)c1ccnc(NC2CCN(Cc3ccccc3)CC2)n1 [B124],IC50,DCN1-UBC12 interaction; read-out: TR-FRET IC50,> 90.4 µM
CCCCN1CCC(CC(=O)OC)(NC(=O)Nc2cccc(C(F)(F)F)c2)CC1 [A254],IC50,DCN1-UBC12 interaction; read-out: TR-FRET IC50,> 60.1 µM
CCOC(=O)c1ccccc1NC(=O)N(C(C)C)C1CCN(C(C)=O)CC1 [B66],IC50,DCN1-UBC12 interaction; read-out: TR-FRET IC50,> 67.6 µM
COc1cc(C(=O)N2CCC(C(=O)Nc3ccc(Cl)cc3)CC2)cc(OC)c1OC [C23],IC50,DCN1-UBC12 interaction; [5],> 67.6 µM
CCCC(C)N1CCC(N(Cc2ccccc2)C(=O)Nc2cccc3cccnc23)CC1 (stereo not shown) [A139],IC50,DCN1-UBC12 interaction; read-out: TR-FRET IC50,4.13 µM
CC(C)C(C)N1CCC(N(Cc2ccccc2)C(=O)Nc2cc(F)cc(C(F)(F)F)c2)CC1 (stereo not shown) [A122],IC50,DCN1-UBC12 interaction; read-out: TR-FRET IC50,1.12 µM
O=C(Nc1cccc([N+](=O)[O-])c1)C1CCN(C(=O)c2cccc3ccccc23)CC1 [C64],IC50,DCN1-UBC12 interaction; [5],> 67.6 µM
Cc1ccc(CN(C(=O)Nc2ccccc2F)C2CCN(Cc3ccccc3)CC2)o1 [B94],IC50,DCN1-UBC12 interaction; read-out: TR-FRET IC50,> 67.6 µM
COc1cc(C(=O)N2CCC(C(=O)Nc3ccc(Br)cc3)CC2)cc(OC)c1OC [C24],IC50,DCN1-UBC12 interaction; [5],> 67.6 µM
COc1cccc(C(=O)N2CCC(c3nc4ccccc4s3)CC2)c1 [D14],IC50,DCN1-UBC12 interaction; read-out: TR-FRET IC50,66.4 µM
O=C(Nc1ccccc1Br)C1CCN(C(=O)c2ccccc2Cl)CC1 [C17],IC50,DCN1-UBC12 interaction; [5],> 67.6 µM
CCc1ccc(NC(=O)C2CCN(C(=O)N3CC(C)Oc4ccccc43)CC2)cc1 (stereo not shown) [C52],IC50,DCN1-UBC12 interaction; [5],> 67.6 µM
CCCN1CCN(C(=O)c2cnn(-c3ncc(C)c(-c4cccs4)n3)c2COC)CC1 [E11],IC50,DCN1-UBC12 interaction; [4],26 µM
